SMILES strings stand for the structures. Where two headings read alike, the source gives them in different places. Some results are limits rather than exact numbers.

Results on 29 compounds are retold here after patent US10787444B2, “Compounds for the modulation of myc activity” (Syros Pharmaceuticals, Inc., priority 2015, dated 2020).

One experiment concerns the target T1, c-Myc/Max/Ebox DNA (Homo sapiens, UniProt P01106).
T1 construct: his6 (cleaved yes)
The experiment is described as follows: c-Myc/Max/Ebox DNA AlphaScreen Assay. Conditions: calculated IC50 class. The format is binding. The method, boiled down: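 Compounds were preincubated with free c-Myc (20 nM), biotinylated single-Ebox DNA (10 nM) and Ni acceptor beads before his6-Max (5 nM) and streptavidin donor beads were added. Buffer was 50 mM HEPES pH 8.0, 150 mM NaCl, BSA, Tween20, glycogen and DTT, with DMSO ≤2%. After 2 h incubation, AlphaScreen signal was read at 680 nm excitation and 520–620 nm emission.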

Experiment [1] relates to human small lung cancer cell line H2171. The experiment is described as follows: Cell Viability Assay (ATPlite). It counts as cell-based. The following applies: read-out: H2171 Activity. How it is done: Compounds of the invention were assayed for cell viability using the human small lung cancer cell line H2171 as described in the following protocol. Cells were counted and adjusted to 20,000 cells/mL. Using a Biotek EL406, 50 μL of cells in media were distributed into 384 well white plates from Thermo. Immediately after plating, compound in DMSO was distributed to plates. Compounds were added to plates using a 50 nL 384 well pin transfer manifold on a Janus workstation. Stocks were arrayed in 10 point dose response in DMSO stock in 384 well Greiner compound plates. After the addition of compounds, plates were incubated for three days in a 37° C. incubator. Cell viability was read out using ATPlite from Perkin Elmer. Lyophilized powder was resuspended in lysis buffer and diluted 1:2 with deionized water. 25 μL of this solution was added to each well using the Biotek liquid handler. Plates were incubated for 15 minutes at room temperature before signal was read on an Envision Plate Reader. The data from this assay are summarized in Tables 2 and 3 below (H2171 activity).
(In general: In ATP-based viability assays light output follows the ATP content of the culture.)

Setting [2] is: Homo sapiens, NCI-H2171, 72 h, Table 2, compounds of FIG. 1, H2171 cells, three days, ATPlite, calculated IC50 class.
Where [3] appears, read: Homo sapiens, NCI-H2171, 72 h, Table 3, compounds of FIG. 2, H2171 cells, three days, ATPlite, calculated IC50 class.
The mark [4] stands for this setting: Table 2, compounds of FIG. 1, H2171 cells, three days, ATPlite, calculated IC50 class.

T1 sequence (P01106 whole entry): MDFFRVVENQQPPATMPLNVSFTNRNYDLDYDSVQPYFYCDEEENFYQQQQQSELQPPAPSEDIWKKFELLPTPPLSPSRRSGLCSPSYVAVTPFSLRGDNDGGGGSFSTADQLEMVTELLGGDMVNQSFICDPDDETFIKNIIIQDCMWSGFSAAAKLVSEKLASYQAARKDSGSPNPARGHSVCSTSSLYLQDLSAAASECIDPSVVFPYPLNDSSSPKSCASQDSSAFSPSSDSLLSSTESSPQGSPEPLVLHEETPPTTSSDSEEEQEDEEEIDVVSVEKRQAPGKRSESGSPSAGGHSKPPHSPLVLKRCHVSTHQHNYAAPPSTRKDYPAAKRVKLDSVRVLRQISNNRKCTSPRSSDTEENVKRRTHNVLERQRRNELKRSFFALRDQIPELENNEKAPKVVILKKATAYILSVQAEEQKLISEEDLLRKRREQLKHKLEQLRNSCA

As to `CCN1CCc2c(sc(NC(C)=O)c2-c2nc3ccccc3s2)C1` [Compound 201, N-(3-(benzo[d]thiazol-2-yl)-6-ethyl-4,5,6,7-tetrahydrothieno[2,3-c]pyridin-2-yl)acetamide], the IC50 on c-Myc/Max/Ebox DNA (Table 3, compounds of FIG. 2) is 1000 to 10000 nM; in experiment [1] (Homo sapiens, NCI-H2171, 72 h), 1000 to 10000 nM.
In the case of `CC(C)NCCC(=O)Nc1sc2c(c1-c1nc3cc(C(=O)Nc4cccnc4)ccc3s1)CCNC2` [Compound 510, 2-(2-(3-(Isopropylamino)propanamido)-4,5,6,7-tetrahydrothieno[2,3-c]pyridin-3-yl)-N-(pyridin-3-yl)benzo[d]thiazole-5-carboxamide], the IC50 was 300 to 1000 nM at c-Myc/Max/Ebox DNA (Table 2, compounds of FIG. 1) and less than 300 nM in experiment [1] (setting [2]).
Regarding `CC(C)(C)NCCC(=O)Nc1sc2c(c1-c1nc3ccccc3s1)CCNC2` [Compound 131, N-(3-(benzo[d]thiazol-2-yl)-4,5,6,7-tetrahydrothieno[2,3-c]pyridin-2-yl)-3-(tert-butylamino)propanamide], the IC50 at c-Myc/Max/Ebox DNA (Table 2, compounds of FIG. 1) is less than 300 nM; in experiment [1] (setting [2]) it was 300 to 1000 nM.
Consider `CCC(C)N(CCC(=O)Nc1sc2c(c1-c1nc3ccccc3s1)CCN(CCNC(=O)C(F)(F)F)C2)C(C)=O` (stereo not shown) [Compound 319, N-(3-(Benzo[d]thiazol-2-yl)-6-(2-(2,2,2-trifluoroacetamido)ethyl)-4,5,6,7-tetrahydrothieno[2,3-c]pyridin-2-yl)-3-(N-(sec-butyl)acetamido)propanamide], for which the IC50 at c-Myc/Max/Ebox DNA (Table 2, compounds of FIG. 1) was more than 10000 nM; in experiment [1] (setting [2]) it was 300 to 1000 nM.
The corresponding values for `COCCNCCC(=O)Nc1sc2c(c1-c1nc3cc(-c4cccc(C(=O)N(C)C)c4)ccc3s1)CCNC2` [compound 394] are less than 300 nM and less than 300 nM.
The corresponding values for `COCCNCCC(=O)Nc1sc2c(c1-c1nc3c(CO)cccc3s1)CCNC2` [compound 598] are less than 300 nM and less than 300 nM.
As for `COCCNCCC(=O)Nc1sc2c(c1-c1nc3cc(C(F)(F)F)ccc3s1)CCN(C(C)C)C2` [Compound 575, N-(6-Isopropyl-3-(5-(trifluoromethyl)benzo[d]thiazol-2-yl)-4,5,6,7-tetrahydrothieno[2,3-c]pyridin-2-yl)-3-((2-methoxyethyl)amino) propanamide], the IC50 on c-Myc/Max/Ebox DNA (Table 2, compounds of FIG. 1) is less than 300 nM; in experiment [1] (setting [2]), less than 300 nM.
For the compound `COCCNCCC(=O)Nc1sc2c(c1-c1nc3cc(-c4cccnc4)ccc3s1)CC(C)NC2C` (single isomer, unassigned) [Compound 524, N-(5,7-Dimethyl-3-(5-(pyridin-3-yl)benzo[d]thiazol-2-yl)-4,5,6,7-tetrahydrothieno[2,3-c]pyridin-2-yl)-3-((2-methoxyethyl)amino)propanamide], the IC50 was less than 300 nM on c-Myc/Max/Ebox DNA (Table 2, compounds of FIG. 1) and 300 to 1000 nM in experiment [1] (setting [2]).
The corresponding values for `CC(C)N1CCc2c(sc(NC(=O)CCNC(C)(C)C)c2-c2nc3ccccc3s2)C1` [Compound 127, N-(3-(benzo[d]thiazol-2-yl)-6-isopropyl-4,5,6,7-tetrahydrothieno[2,3-c]pyridin-2-yl)-3-(tert-butylamino)propanamide] are 300 to 1000 nM and 300 to 1000 nM.
The corresponding values for `CCC(C)NCCC(=O)N(C)c1sc2c(c1-c1nc3ccccc3s1)CCNC2` (stereo not shown) [Compound 301, N-(3-(benzo[d]thiazol-2-yl)-4,5,6,7-tetrahydrothieno[2,3-c]pyridin-2-yl)-3-(sec-butylamino)-N-methylpropanamide] are 1000 to 10000 nM and 1000 to 10000 nM.
The corresponding values for `CCOC(=O)Cn1cc(-c2ccc3sc(-c4c(NC(=O)CCNCCOC)sc5c4CCNC5)nc3c2)cn1` [compound 445] are less than 300 nM and less than 300 nM.
In the case of `COCCNCCC(=O)Nc1sc2c(c1-c1nc3cc(-n4cnc(C)c4)ccc3s1)CCNC2` [compound 180], the IC50 on c-Myc/Max/Ebox DNA (Table 2, compounds of FIG. 1) is less than 300 nM; in experiment [1] (setting [2]), less than 300 nM.
In the case of `COCCNCCC(=O)Nc1sc2c(c1-c1nc3cc(-c4ccc(C(=O)N5CCOCC5)cc4)ccc3s1)CCNC2` [compound 334], the IC50 at c-Myc/Max/Ebox DNA (Table 2, compounds of FIG. 1) was less than 300 nM; in experiment [1] (setting [2]) it was less than 300 nM.
With `CC(=O)N(C)c1sc2c(c1-c1nc3ccccc3s1)CCNC2` [Compound 232, N-(3-(benzo[d]thiazol-2-yl)-4,5,6,7-tetrahydrothieno[2,3-c]pyridin-2-yl)-N-methylacetamide], the IC50 at c-Myc/Max/Ebox DNA (Table 3, compounds of FIG. 2) was more than 10000 nM; in experiment [1] (setting [3]), more than 10000 nM.
On to `CC(C)N1CCc2c(sc(NC(=O)CCNCc3cn[nH]c3)c2-c2nc3ccccc3s2)C1` [Compound 155, 3-(((1H-pyrazol-4-yl)methyl)amino)-N-(3-(benzo[d]thiazol-2-yl)-6-isopropyl-4,5,6,7-tetrahydrothieno[2,3-c]pyridin-2-yl)propanamide], for which the IC50 on c-Myc/Max/Ebox DNA (Table 2, compounds of FIG. 1) was less than 300 nM; in experiment [1] (setting [2]), less than 300 nM.
In the case of `CC(C)NCCC(=O)Nc1sc2c(c1-c1nc3cc(-n4cnc(Cl)c4)ccc3s1)CCNC2` [compound 173], the IC50 on c-Myc/Max/Ebox DNA (Table 2, compounds of FIG. 1) is less than 300 nM; in experiment [1] (setting [2]) it was less than 300 nM.
Turning to `CC(C)NCCC(=O)Nc1sc2c(c1-c1nc3ccc(-c4ccncc4)cc3s1)CCNC2` [compound 192], the IC50 is less than 300 nM on c-Myc/Max/Ebox DNA (Table 2, compounds of FIG. 1) and less than 300 nM in experiment [1] (setting [2]).
On to `CC(=O)Nc1sc2c(c1-c1nc3cc4c(cc3s1)OCO4)CCNC2` [Compound 237, N-(3-([1,3]Dioxolo[4′,5′:4,5]benzo[1,2-d]thiazol-6-yl)-4,5,6,7-tetrahydrothieno[2,3-c]pyridin-2-yl)acetamide], for which the IC50 was 1000 to 10000 nM at c-Myc/Max/Ebox DNA (Table 3, compounds of FIG. 2) and 300 to 1000 nM in experiment [1] (setting [3]).
For the compound `CC[C@H](C)NCCC(=O)Nc1sc2c(c1-c1nc3cc(C(F)(F)F)ccc3s1)CC(C)NC2C` (single isomer, unassigned) [Compound 586], the IC50 was more than 10000 nM at c-Myc/Max/Ebox DNA (Table 2, compounds of FIG. 1) and less than 300 nM in experiment [1] (setting [4]).
For `COCCNCCC(=O)Nc1sc2c(c1-c1nc3cc(-c4cnn(C(C)C)c4)ccc3s1)CCNC2` [compound 465], the IC50 on c-Myc/Max/Ebox DNA (Table 2, compounds of FIG. 1) was less than 300 nM; in experiment [1] (setting [2]), less than 300 nM.
As for `COCCNCCC(=O)Nc1sc2c(c1-c1nc3cc(-c4ccncc4)ccc3s1)CCNC2C` (single isomer, unassigned) [Compound 548, 3-((2-Methoxyethyl)amino)-N-(7-methyl-3-(5-(pyridin-4-yl)benzo[d]thiazol-2-yl)-4,5,6,7-tetrahydrothieno[2,3-c]pyridin-2-yl)propanamide], the IC50 on c-Myc/Max/Ebox DNA (Table 2, compounds of FIG. 1) is less than 300 nM; in experiment [1] (setting [4]), less than 300 nM.
Consider `COCCNCCC(=O)Nc1sc2c(c1-c1nc3cc(-c4cnc(OC)nc4)ccc3s1)CCNC2` [compound 404], for which the IC50 at c-Myc/Max/Ebox DNA (Table 2, compounds of FIG. 1) is less than 300 nM; in experiment [1] (setting [2]), less than 300 nM.
With `COCCNCCC(=O)Nc1sc2c(c1-c1nc3ccc(C4=CCNCC4)cc3s1)CCNC2` [compound 459], the IC50 on c-Myc/Max/Ebox DNA (Table 2, compounds of FIG. 1) was less than 300 nM; in experiment [1] (setting [2]), less than 300 nM.
Consider `COCCNCCC(=O)Nc1sc2c(c1-c1nc3cc(-c4cnn(C)c4)ccc3s1)CC(C)NC2C` (single isomer, unassigned) [Compound 565, N-(5,7-Dimethyl-3-(5-(1-methyl-1H-pyrazol-4-yl)benzo[d]thiazol-2-yl)-4,5,6,7-tetrahydrothieno[2,3-c]pyridin-2-yl)-3-((2-methoxyethyl)amino)propanamide], for which the IC50 is less than 300 nM on c-Myc/Max/Ebox DNA (Table 2, compounds of FIG. 1) and less than 300 nM in experiment [1] (setting [4]).
In the case of `CCCNCCC(=O)Nc1sc2c(c1-c1nc3ccccc3s1)CCN(C(C)C)C2` [Compound 539, N-(3-(Benzo[d]thiazol-2-yl)-6-isopropyl-4,5,6,7-tetrahydrothieno[2,3-c]pyridin-2-yl)-3-(propylamino)propanamide], the IC50 was 300 to 1000 nM at c-Myc/Max/Ebox DNA (Table 2, compounds of FIG. 1) and 300 to 1000 nM in experiment [1] (setting [4]).
Regarding `CC[C@H](C)NCCC(=O)Nc1sc2c(c1-c1nc3ccccc3s1)CCN(C(C)C)C2` [Compound 135, (S)—N-(3-(benzo[d]thiazol-2-yl)-6-isopropyl-4,5,6,7-tetrahydrothieno[2,3-c]pyridin-2-yl)-3-(sec-butylamino)propanamide], the IC50 on c-Myc/Max/Ebox DNA (Table 2, compounds of FIG. 1) is less than 300 nM; in experiment [1] (setting [2]), less than 300 nM.
With `CC[C@H](C)NCCC(=O)Nc1sc2c(c1-c1nc3cc(C(F)(F)F)ccc3s1)CCNC2` [Compound 152, (S)-3-(sec-butylamino)-N-(3-(5-(trifluoromethyl)benzo[d]thiazol-2-yl)-4,5,6,7-tetrahydrothieno[2,3-c]pyridin-2-yl)propanamide], the IC50 on c-Myc/Max/Ebox DNA (Table 2, compounds of FIG. 1) was less than 300 nM; in experiment [1] (setting [2]) it was less than 300 nM.
Turning to `CC[C@H](C)NCCC(=O)Nc1sc2c(c1-c1nc3cc(-c4ccncc4)ccc3s1)CCN(C1CC1)C2` [Compound 618, (S)-3-(sec-butylamino)-N-(6-cyclopropyl-3-(5-(pyridin-4-yl)benzo[d]thiazol-2-yl)-4,5,6,7-tetrahydrothieno[2,3-c]pyridin-2-yl)propanamide], the IC50 on c-Myc/Max/Ebox DNA (Table 2, compounds of FIG. 1) was less than 300 nM; in experiment [1] (setting [2]) it was less than 300 nM.
`COCCNCCC(=O)Nc1sc2c(c1-c1nc3ccc(-c4cccc(C(=O)NCCN(C)C)c4)cc3s1)CCNC2` [compound 493]: the IC50 at c-Myc/Max/Ebox DNA (Table 2, compounds of FIG. 1) is less than 300 nM; in experiment [1] (setting [2]) it was less than 300 nM.
